In patent publication US6166085A, “Method of producing analgesia” (priority 1996, dated 2000):
Entries after “also recorded” stand apart in the source; their conditions may differ.

Experiments:
mechanical allodynia = assay: Mechanical allodynia in rat model of peripheral neuropathy (L5/L6 spinal nerve ligation), intrathecal, Example 2; type: in vivo, Sprague-Dawley rats; details: 0.6 μmol intrathecal, pH 6.58
Protocol: Experiments carried out in support of the present invention were performed in a rat model of peripheral neuropathy detailed in Example 2. Briefly, in the model used, rats are subjected to a surgical procedure, described by Kim and Chung (1992), designed to reproducibly injure peripheral nerves (spinal nerves L5 and L6). These rats develop a hyperesthetic state, which can be measured using one or more paradigms known in the art. Here, allodynia was measured by stimulation of neuropathic rat hindlimb using wire hairs having graded degrees of stiffness.
[…]. Test solutions at pH 6.58 were administered intrathecally as described above. Mechanical allodynia was measured by pressing nylon filaments of varying diameters against the paw. Data are expressed in terms of 50% response threshold, which is the median buckling weight required to evoke paw withdrawal; the lower the stimulus level, the more severe the allodynia.
Male Sprague-Dawley rats (200-350 gm) were prepared with chronic lumbar intrathecal catheters inserted under halothane anesthesia (Yaksh and Rudy). Animals were placed in a prone position and the left paraspinal muscles were separated from the spinous processes at the L4 -S2 levels, as described by Kim et al. The left L5 and L6 nerve roots were exposed and tightly ligated with 6-0 surgical silk suture. The rats were allowed to recover from anesthesia. Allodynia was typically observed to occur beginning 1-2 days post surgery and continuing for as long as 45 days. For testing, animals were placed in plastic cubicles with open wire mesh bottoms. Compound dissolved in preservative-free saline solution was administered in a volume of 10 μl through the intrathecal catheter, followed by 10 μl saline to flush the catheter line. Animals were tested for allodynia at various time points after drug treatment, as described below.
To assess the threshold of a non-noxious stimulus required to produce a left hind paw withdrawal (allodynia), Von Frey hairs (ranging from 0.4-15 grams), were systematically applied to the surgically treated hind paw. Failure to evoke a response was cause to test the next stiffer hair. Evocation of a brisk withdrawal response was cause to test the next lower stimulus intensity. This paradigm was repeated according to a statistical method (Dixon, 1976) to define the 50% response threshold.
Data in FIG. 6 are expressed in terms of 50% response threshold, which is the median buckling weight required to evoke paw withdrawal; the lower the stimulus level, the more severe the allodynia. Allodynia thresholds, measured 30 minutes after injection, were plotted against dosage. Each point represents a value for a single animal.

[1] = test system: sciatic nerve compound action potential; assay: Rat sciatic nerve compound action potential in vivo, direct application; set-up: species or system Harlan Sprague Dawley rats; details: for potency relative to lidocaine: compound action potential blockade; for blockade of sciatic nerve compound action potential (in words): direct application, lidocaine 2.5 mg, metabolites 5 mg, 10 min
Protocol: Male Harlan Sprague Dawley rats (300-350 g) were anesthetized with pentobarbital/diazepam. The sciatic nerves were sequentially and bilaterally exposed by sharp/blunt dissection from the popliteal region proximally. Electrodes were placed at the sciatic notch (stimulating), and the interossei (recording); a grounding electrode was applied remote from the field. Baseline compound action potential (CAP) (A alpha/beta) wave heights (mV) in response to stimulation 1× per minute were recorded for ten minutes to obtain a stable reference. One drug/vehicle solution was applied per nerve, at mid-nerve (mid-thigh) level, in a volume of 250 μl, and compound action potential wave height then was recorded 1× per minute for ten minutes after application.

[2] = Observation of motor dysfunction and overt behavior / side effects; type: in vivo, Sprague-Dawley rats; details: IT; for motor dysfunction, IT (in words): Example 3, lidocaine and MEGX 500 μg, 3-OH L 58 μg (highest dose soluble in vehicle)
Description: Animals were also observed for the appearance of general motor dysfunction,as evidenced by inability to ambulate symmetrically and for any other overt signs of unusual activity.

allodynia [3] = assay: Tactile allodynia (paw withdrawal threshold, % MPE) in L5/L6 spinal nerve ligated rats, Example 3; type: in vivo, Harlan Sprague-Dawley rats; details: for effect on allodynia, IV (in words) / Emax at 20 mg/kg: 20 mg/kg; for Emax at 20 mg/kg: Rattus norvegicus, 1 h, IV, 3-OH L in DMSO (p=0.006 vs DMSO, N=4), MEGX over 60 minutes (P=NS vs saline), read-out: maximum effect on PWT (% MPE), IV
Protocol: Male Harlan Sprague-Dawley rats were used (100-200 g). Rats were housed 2-3 to a cage with corn cob bedding and Purina rat chow and water ad libitum, in a standard facility with a 12 h/12 h day/night cycle. After surgical procedures involving chronic indwelling catheter insertion, animals were housed singly to prevent catheter damage.
Rats were allowed to recover 5-7 days before further testing or surgeries.
The catheters were 9 cm in intrathecal length and terminated near the lumbar enlargement. The rostral 3 cm of catheter was tunneled under the skin to externalize between the ears. Rats with neurologic deficits were discarded.
For intravascular access, external jugular catheters were fashioned from PE-50 tubing and inserted into an external jugular vein under halothane/oxygen anesthesia. Arterial catheters were also fashioned from PE-50 with a small bouton 1 cm from the intravascular end for suture securing; they were inserted into a carotid artery, taking care to spare the surrounding nerves. All catheters were flushed with heparinized saline (10 U/ml) and tunneled subcutaneously to emerge at the posterior base of the neck, and capped when not in use.
Monoethylglycinexylidide (MEGX) and 3-hydroxy monoethyl-glycinexylidide (3-OH MEGX) were dissolved in physiologic saline; 3-hydroxylidocaine (3-OH L) was dissolved in DMSO for intravenous administration.
(§1) Intravenous drugs were delivered to awake, unrestrained rats by slow infusion using a syringe pump (Harvard apparatus 22). Intrathecal drugs were delivered to awake, briefly restrained rats in a volume of 10 μl, followed by 10 μl of vehicle flush, using a calibrated tubing extension with a 30-gauge adapter fitting the implanted intrathecal catheter, attached to a geared Hamilton 100 μl glass syringe. IT drug delivery was monitored by observing the advancement of a small air bubble down the tubing.
Rats were placed in a plastic cage with an open wire mesh bottom and allowed to accommodate for approximately fifteen minutes. […] In brief, von Frey hairs were sequentially applied using an up-and-down paradigm to the left mid-plantar hindpaw with sufficient force to cause slight filament buckling. Positive responses were noted if the paw was sharply withdrawn. […] Otherwise, PWT were calculated by noting the stimulus level at which the first change in behavior occurred, collecting four additional responses to the continued up-and-down oscillation of stimulus presentation around the response threshold, and interpolating the 50% response threshold. For some comparisons, raw thresholds were converted to percent of maximum possible effect (% MPE), designating pre-treatment PWT (baselines) as 0% effect, and assigning a cutoff value of 100% effect to thresholds ≥15 g: therefore, % MPE values near 100 indicate normal mechanical thresholds (i.e., at or near 15 g), whereas values near 0 indicate allodynia. The following equation was used to compute % MPE:
% MPE=new threshold(g)-baseline threshold(g)×100/ 15 grams--baseline
Plasma drug levels and PWT were correlated using linear regression. Serially measured PWT and % MPE were compared using repeated measures ANOVA with post-hoc testing.

allodynia [4] = details: cited from earlier work; for activity as metabolite with regard to allodynia suppression, earlier application: application Ser. No. 08/422,377
[5] = Plasma bupivacaine level and toxicity during IV infusion; type: in vivo, Harlan Sprague-Dawley rats
Protocol: as §1
For bupivacaine assays, samples were obtained by withdrawing and discarding approximately 0.3 cc of blood from arterial cannulae, and then withdrawing samples of approximately 0.5 cc volume. These samples were centrifuged and the plasma supernatant was frozen at -20° C. until analysis.
Bupivacaine was extracted from the thawed samples by solid-phase extraction chromatography )Chen Y et al., Therapeut Drug Monitor 14:317-321 (1992)). Sep-Pak C-18 (300 mg) cartridges were pre-conditioned with 4 ml of methanol and then 4 ml water. […]
Bupivacaine was quantitated by capillary GC with nitrogen-phosphorus detection )Bjork M et al., Journal of Chromatography 533:229-234 (1990)). […] Split injections (1.5:1) were performed with a Hewlett Packard 7673A automatic sampler, and the chromatograms were recorded and analyzed with H-P Chemstation (MSDOS) software. […]

| SMILES | potency relative to lidocaine [1] | blockade of sciatic nerve compound action potential (in words) [1] | motor dysfunction, IT (in words) [2] | effect on allodynia, IV (in words) (allodynia [3]; IV infusion) | Emax at 20 mg/kg (allodynia [3]) | activity as metabolite with regard to allodynia suppression, earlier application (allodynia [4]) | also measured |
| --- | --- | --- | --- | --- | --- | --- | --- |
| Cc1cccc(C)c1OCC(C)N (stereo not drawn) [mexiletine] |  |  |  |  |  |  | effect on mechanical allodynia (50% response threshold), 0.6 μmol (mechanical allodynia): did not block mechanical allodynia |
| CCNCC(=O)Nc1c(C)cccc1C [MEGX, Monoethylglycinexylidide] | approximately 1/3 | showed some activity | transient motor dysfunction | no effect | 28% | not MEGX was an active metabolite with regard to allodynia suppression | duration of motor dysfunction (hindquarter flaccidity / weakness) ([2]; 500 μg): 5 to 10 min; motor block / motor effects (summary) ([2]; 3-hydroxy MEGX at effective anti-allodynia dose, MEGX in excess): motor blockade; suppression of allodynia after IT administration (summary) (allodynia [3]; IT): not MEGX, suppressed allodynia after IT administration; effect on allodynia / PWT, IT 500 μg (in words) (allodynia [3]; IT, 500 μg, after recovery of motor function): no effect on PWT |
| CCCCN1CCCCC1C(=O)Nc1c(C)cccc1C (stereo not drawn) [bupivacaine] |  |  |  |  |  |  | toxicity (in words) [5]: evident toxicity as manifested by ataxia and lethargy; also recorded: Higher doses resulted in seizure; mean plasma level at seizure ([5]; N=4, unit not given): 7.4±0.7; effect of intravenous bupivacaine on allodynia (allodynia [3]; IV infusion, 15 samples from 4 rats, P=0.11, linear regression): no effect on allodynia; also recorded: inactive against allodynia; effect of IV bupivacaine on allodynia, earlier literature (allodynia [4]; Biella G et al. 1992, centrally facilitated nociceptive processing): lack of effect of bupivacaine on centrally facilitated nociceptive processing |
| CCN(CC)CC(=O)Nc1c(C)ccc(O)c1C [3-OH L, 3-hydroxylidocaine] | 1/4 | showed some activity | no motor dysfunction was seen | both potent and effective at suppressing allodynia | 76% | active metabolite with regard to allodynia suppression | local anesthetic (sodium channel blocking) activity ([1]; FIG. 12 legend): weaker local anesthetic than lidocaine; MPE, IT 20 μg (allodynia [3]; IT, 20 (unit printed "l g")): 80.2±20%; MPE, IT 58 μg (allodynia [3]; IT, 58 (unit printed "l g")): 63±16% |
